For data set [1], the target named is T1, Histone-lysine N-methyltransferase EHMT2 (Homo sapiens) (UniProt Q96KQ7).
T1 sequence (whole entry): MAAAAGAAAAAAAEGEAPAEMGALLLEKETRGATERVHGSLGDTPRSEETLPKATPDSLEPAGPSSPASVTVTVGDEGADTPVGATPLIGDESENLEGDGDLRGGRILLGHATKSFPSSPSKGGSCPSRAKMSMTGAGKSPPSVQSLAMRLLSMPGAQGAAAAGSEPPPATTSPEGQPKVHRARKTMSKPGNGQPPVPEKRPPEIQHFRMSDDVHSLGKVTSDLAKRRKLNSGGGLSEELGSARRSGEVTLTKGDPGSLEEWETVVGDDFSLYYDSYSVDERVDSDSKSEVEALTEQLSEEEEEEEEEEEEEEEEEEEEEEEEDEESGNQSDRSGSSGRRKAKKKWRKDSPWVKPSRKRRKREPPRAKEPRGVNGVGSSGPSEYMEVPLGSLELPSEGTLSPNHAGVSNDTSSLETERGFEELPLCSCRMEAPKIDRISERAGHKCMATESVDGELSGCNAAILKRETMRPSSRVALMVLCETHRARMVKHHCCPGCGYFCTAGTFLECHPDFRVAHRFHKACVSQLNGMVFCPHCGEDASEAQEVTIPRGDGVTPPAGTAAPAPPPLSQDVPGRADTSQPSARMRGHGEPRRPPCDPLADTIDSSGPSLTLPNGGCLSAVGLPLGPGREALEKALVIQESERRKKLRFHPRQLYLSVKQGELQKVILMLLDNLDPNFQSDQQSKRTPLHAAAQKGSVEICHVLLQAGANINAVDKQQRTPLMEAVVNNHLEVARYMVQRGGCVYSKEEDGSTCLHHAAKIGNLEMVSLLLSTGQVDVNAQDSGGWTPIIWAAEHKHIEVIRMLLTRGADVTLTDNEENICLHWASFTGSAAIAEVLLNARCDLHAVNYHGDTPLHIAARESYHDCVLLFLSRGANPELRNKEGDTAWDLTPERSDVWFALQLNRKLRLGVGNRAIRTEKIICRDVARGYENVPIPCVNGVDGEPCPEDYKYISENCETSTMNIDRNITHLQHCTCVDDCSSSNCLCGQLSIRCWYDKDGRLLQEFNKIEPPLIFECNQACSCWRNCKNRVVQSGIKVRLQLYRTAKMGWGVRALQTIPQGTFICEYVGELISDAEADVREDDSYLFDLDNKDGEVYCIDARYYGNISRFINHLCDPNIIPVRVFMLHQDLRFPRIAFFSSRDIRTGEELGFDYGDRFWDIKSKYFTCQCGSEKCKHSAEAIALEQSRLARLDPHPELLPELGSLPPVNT
The experiment in a line: Inhibition of G9a (unknown origin) at 1 uM by AlphaLISA immunodetection assay relative to control. (In Alpha technology, singlet oxygen from a donor bead excites a nearby acceptor bead.)

Data set [2] deals with T2, Histone-lysine N-methyltransferase EHMT2 (Homo sapiens, UniProt Q96KQ7).
T2 sequence (Q96KQ7 whole entry): T1 sequence (whole entry)
The experiment in a line: Inhibition of G9a (unknown origin).

Data set [3] can be described thus: AUC(0 to infinity) in ICR mouse at 2 mg/kg, iv measured upto 12 hrs by LC-MS/MS analysis. Format: ADME, organism-based. Conditions: in vivo.
A short description of data set [4]: AUC(0 to t) in ICR mouse at 2 mg/kg, iv measured upto 12 hrs by LC-MS/MS analysis. Format: ADME, organism-based. The conditions noted are these: in vivo.
Data set [5] has as its system MDA-MB-231. The experiment in a line: Antiproliferative activity against human MDA-MB-231 cells at 1 to 5 nM by MTT assay. Format: functional, cell-based. The conditions noted are these: dose 1-5 nM, time 3-5 day, TDE = time-dependent effect. (In general: Formazan colour is commonly taken as a measure of viable cells.)
Data set [6] has as its system MDA-MB-231. As to the kind of experiment: Antiproliferative activity against human MDA-MB-231 cells after 5 days by MTT assay. Format: functional, cell-based. The conditions noted are these: MDA-MB-231, 120 h.
Data set [7] deals with MDA-MB-231. As to the kind of experiment: Inhibition of colony formation in human MDA-MB-231 cells at 1 to 10 uM refreshed every 4 days for 12 days by crystal violet staining based assay. Format: functional, cell-based. Conditions: dose 1-10 µM, time 12.0 day.
For data set [8], the system named is MDA-MB-231. The experiment in a line: Induction of apoptosis in human MDA-MB-231 cells assessed as viable cells at 5 uM incubated for 72 hrs by Annexin V and PI staining based flow cytometry analysis (reference value: 98.31 %). The conditions noted are these: read-out: Activity. Format: functional.
The test system of data set [9] is MDA-MB-231. The experiment in a line: Induction of apoptosis in human MDA-MB-231 cells assessed as late apoptotic cells at 5 uM incubated for 72 hrs by Annexin V and PI staining based flow cytometry analysis (reference value: 0.45 %). Format: functional. (Flow cytometry measures light scatter and fluorescence of single cells or particles in a stream.)
For data set [10], the system named is MDA-MB-231. The experiment in a line: Induction of apoptosis in human MDA-MB-231 cells assessed as viable cells at 10 uM incubated for 72 hrs by Annexin V and PI staining based flow cytometry analysis (reference value: 98.31 %). Conditions: read-out: Activity. The data set is classed as functional.
Data set [11] has as its system MDA-MB-231. As to the kind of experiment: Induction of apoptosis in human MDA-MB-231 cells assessed as early apoptotic cells at 10 uM incubated for 72 hrs by Annexin V and PI staining based flow cytometry analysis (reference value: 0.92 %). Format: functional.
The test system of data set [12] is MDA-MB-231. The experiment in a line: Induction of apoptosis in human MDA-MB-231 cells assessed as late apoptotic cells at 10 uM incubated for 72 hrs by Annexin V and PI staining based flow cytometry analysis (reference value: 0.45 %). The data set is classed as functional.
For data set [13], the system named is MDA-MB-231. As to the kind of experiment: Induction of apoptosis in human MDA-MB-231 cells assessed as viable cells at 20 uM incubated for 72 hrs by Annexin V and PI staining based flow cytometry analysis (reference value: 98.31 %). Format: functional. Conditions: read-out: Activity.
For data set [14], the system named is MDA-MB-231. As to the kind of experiment: Induction of apoptosis in human MDA-MB-231 cells assessed as early apoptotic cells at 20 uM incubated for 72 hrs by Annexin V and PI staining based flow cytometry analysis (reference value: 0.92 %). Format: functional.
The test system of data set [15] is MDA-MB-231. As to the kind of experiment: Induction of apoptosis in human MDA-MB-231 cells assessed as late apoptotic cells at 20 uM incubated for 72 hrs by Annexin V and PI staining based flow cytometry analysis (reference value: 0.45 %). The data set is classed as functional.
Data set [16] has as its system MDA-MB-231. As to the kind of experiment: Induction of apoptosis in human MDA-MB-231 cells assessed as necrotic cells at 20 uM incubated for 72 hrs by Annexin V and PI staining based flow cytometry analysis (reference value: 0.32 %). The data set is classed as functional.
The test system of data set [17] is MDA-MB-231. As to the kind of experiment: Induction of cell cycle arrest in human MDA-MB-231 cells assessed as accumulation of cells at G2/M phase incubated for 72 hrs by PI/RNase staining based flow cytometric analysis. Format: functional. The conditions noted are these: dose 5-20 µM.
Data set [18] has as its target Histone-lysine N-methyltransferase EHMT1/EHMT2 (Homo sapiens) (UniProt Q9H9B1+Q96KQ7). The experiment in a line: Inhibition of G9a/GLP in human MDA-MB-231 cells assessed as reduction in H3K9 dimethylation at 20 uM incubated for 1 day followed by compound washout and measured after 1 to 4 days. Format: cell-based.
Data set [19] can be described thus: Cytotoxicity against human L02 cells assessed as reduction in cell viability incubated for 2 days by MTT assay. Format: toxicity, cell-based.

Structures are written as SMILES. Activity calls are given as the source filed them. The rule behind the calls is not given here.

What is called inhibition is the percentage by which the read-out fell short of the control. Broadly, the IC50 is the concentration needed to halve the response being measured. As usually defined, the AUC(0-inf) is total exposure, with the tail of the curve extrapolated. Higher therefore signals high exposure. In general, AUC(0-t) refers to exposure summed from dosing to a finite time, without extrapolation to infinity.

Chain of Histone-lysine N-methyltransferase EHMT1/EHMT2 (Homo sapiens) (Q9H9B1 whole entry, looked up, one chain of several): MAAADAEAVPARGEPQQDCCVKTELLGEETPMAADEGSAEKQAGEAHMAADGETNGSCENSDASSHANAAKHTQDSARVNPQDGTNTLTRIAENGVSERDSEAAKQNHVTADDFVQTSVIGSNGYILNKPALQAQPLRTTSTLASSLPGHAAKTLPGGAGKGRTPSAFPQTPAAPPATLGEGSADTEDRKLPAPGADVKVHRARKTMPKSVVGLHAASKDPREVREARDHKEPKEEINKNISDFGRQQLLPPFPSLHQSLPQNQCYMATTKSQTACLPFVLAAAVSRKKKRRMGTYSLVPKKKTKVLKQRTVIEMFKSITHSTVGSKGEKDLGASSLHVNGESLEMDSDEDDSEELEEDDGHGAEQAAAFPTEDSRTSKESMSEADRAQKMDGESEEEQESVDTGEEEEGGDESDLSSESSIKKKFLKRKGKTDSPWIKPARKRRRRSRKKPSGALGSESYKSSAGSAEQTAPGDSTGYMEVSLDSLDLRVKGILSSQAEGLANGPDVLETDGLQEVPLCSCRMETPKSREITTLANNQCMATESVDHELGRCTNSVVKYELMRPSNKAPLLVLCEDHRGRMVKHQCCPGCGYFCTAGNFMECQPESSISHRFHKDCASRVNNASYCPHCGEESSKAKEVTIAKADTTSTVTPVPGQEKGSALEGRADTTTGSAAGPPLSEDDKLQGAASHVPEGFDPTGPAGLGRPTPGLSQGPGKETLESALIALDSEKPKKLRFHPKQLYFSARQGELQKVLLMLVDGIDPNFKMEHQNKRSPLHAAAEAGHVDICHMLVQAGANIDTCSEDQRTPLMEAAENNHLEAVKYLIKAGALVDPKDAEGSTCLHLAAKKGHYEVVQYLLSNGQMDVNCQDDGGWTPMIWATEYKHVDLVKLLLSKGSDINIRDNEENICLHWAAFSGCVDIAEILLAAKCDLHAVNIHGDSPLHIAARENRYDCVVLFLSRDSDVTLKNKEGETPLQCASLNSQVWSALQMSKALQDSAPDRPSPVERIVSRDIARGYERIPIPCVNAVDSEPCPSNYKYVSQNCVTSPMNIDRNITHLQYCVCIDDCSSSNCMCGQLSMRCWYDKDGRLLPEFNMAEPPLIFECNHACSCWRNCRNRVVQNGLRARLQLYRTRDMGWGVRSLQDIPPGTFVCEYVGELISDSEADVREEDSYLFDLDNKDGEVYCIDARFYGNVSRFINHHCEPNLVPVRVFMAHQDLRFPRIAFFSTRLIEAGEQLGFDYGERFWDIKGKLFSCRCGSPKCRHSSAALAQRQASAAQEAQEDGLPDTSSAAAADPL

`C=CC(=O)Nc1cccc(-c2nc(NC3CCN(C)CC3)c3cc(OC)c(OC)cc3n2)c1` displayed an inhibition in data set [1] of 96%. In addition, the values for the IC50 (in data set [2]; with MDA-MB-231 [6]) were 1220 nM and 598 nM, respectively. This compound showed an AUC(0-inf) in [3] of 1690 ng·h/mL. In addition, the AUC(0-t) at 12 h in data set [4] came to 1650 ng·h/mL. In addition, the Activity result in the data set with MDA-MB-231 [5] is “Tde”; with MDA-MB-231 [9], 3.01%; in the data set with MDA-MB-231 [11] it was 3.7%; with MDA-MB-231 [12] it was 5.89%; in the data set on MDA-MB-231 [14], 21.6%; in the data set on MDA-MB-231 [15] it was 34.86%. Moreover, the Activity is 4.23% with MDA-MB-231 [16] and “Dose-Dependent Effect” with MDA-MB-231 [17]. The inhibition result (in the data set on MDA-MB-231 [7]; in [18]) was “Active” each time. Also, the viability at 5 µM in the data set with MDA-MB-231 [8] came out at 94.6%. Moreover, in the data set on MDA-MB-231 [10], the viability at 10 µM was determined as 89.1%. Further, in the data set with MDA-MB-231 [13], the viability at 20 µM is 39.3%. Further, in data set [19], the IC50 at 2 days came to 10300 nM.

Source of the values: ChEMBL document CHEMBL5634121, “Discovery of novel G9a/GLP covalent inhibitors for the treatment of triple-negative breast cancer” (Eur J Med Chem, 2023).
